The supplement of paper PMC11061612

Columns and labels:
Assay in all cases: combination Emax (second highest fraction inhibited in the dose matrix, 72 h); higher = more inhibition; extreme values may be limits of the assay
[1] = system: 23132-87 (Gastric Carcinoma)
How it was run: (§1)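 Cell lines in DMEM/F12 or RPMI with 10% FBS were plated in 1536-well plates, held 24 hours at 37°C, 5% CO2, then given two-drug dose matrices for 72 hours (DMSO typically 0.2%). Viability was read by CellTiter-Glo 2.0 luminescence and scaled as inhibition from 0 (vehicle wells) to 1 (blank wells). Combination Emax is the second-highest inhibition in the matrix; Bliss excess is observed combination effect minus expected EA + EB − EA·EB, EA and EB being single-agent effects.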

[2] = system: CAL-120 (Breast Carcinoma)
How it was run: as §1

[3] = system: FADU (Head and Neck Carcinoma)
How it was run: as §1

[4] = system: GP5d (Colorectal Carcinoma)
How it was run: as §1

[5] = system: HEC-1 (Endometrial Carcinoma)
How it was run: as §1

[6] = system: HSC-39 (Gastric Carcinoma)
How it was run: as §1

IST-MES1 (Mesothelioma) = system: IST-MES1 (Mesothelioma)
How it was run: as §1

[7] = system: KE-37 (T-Lymphoblastic Leukemia)
How it was run: as §1

[8] = system: LK-2 (Squamous Cell Lung Carcinoma)
How it was run: as §1

[9] = system: MFE-280 (Endometrial Carcinoma)
How it was run: as §1

[10] = system: MKN45 (Gastric Carcinoma)
How it was run: as §1

[11] = system: NCI-H2342 (Lung Adenocarcinoma)
How it was run: as §1

[12] = system: PC-3_[JPC-3] (Lung Adenocarcinoma)
How it was run: as §1

[13] = system: PSN1 (Pancreatic Carcinoma)
How it was run: as §1

[14] = system: RCM-1 (Colorectal Carcinoma)
How it was run: as §1

[15] = system: REH (B-Lymphoblastic Leukemia)
How it was run: as §1

[16] = system: RERF-GC-1B (Gastric Carcinoma)
How it was run: as §1

[17] = system: RERF-LC-Sq1 (Squamous Cell Lung Carcinoma)
How it was run: as §1

SF268 (Low Grade Glioma) = system: SF268 (Low Grade Glioma)
How it was run: as §1

[18] = system: VAL (B-Cell Non-Hodgkin's Lymphoma)
How it was run: as §1

Structure (SMILES) | combination Emax [1] | combination Emax [2] | combination Emax [3] | combination Emax [4] | combination Emax [5] | combination Emax [6] | combination Emax (IST-MES1 (Mesothelioma)) | combination Emax [7] | combination Emax [8] | combination Emax [9] | combination Emax [10] | combination Emax [11] | combination Emax [12] | combination Emax [13] | combination Emax [14] | combination Emax [15] | combination Emax [16] | combination Emax [17] | combination Emax (SF268 (Low Grade Glioma)) | combination Emax [18]
COc1nnc2ccc(N3CCC(c4ccc(OCCN5CCN(C)C(=O)[C@H]5C)cc4)CC3)nn12 [AZD5153] + C=CCn1c(=O)c2cnc(Nc3ccc(N4CCN(C)CC4)cc3)nc2n1-c1cccc(C(C)(C)O)n1 [AZD1775] (first compound max 1 µM, partner max 1 µM) | 0.636 | 0.489 | 0.592 | 0.848 | 0.827 | 0.967 | 0.576 | 0.978 | 0.929 | 0.383 | 0.696 | 0.711 | 0.58 | 0.54 | 0.667 | 0.926 | 0.77 | 0.743 | 0.637 | 0.792
CN(CCO)CC[C@H](CSc1ccccc1)Nc1ccc(S(=O)(=O)NC(=O)c2ccc(N3CCC([C@@H](O)c4ccccc4-c4ccc(Cl)cc4)CC3)cc2)cc1S(=O)(=O)C(F)(F)F [AZD4320] + C=CCn1c(=O)c2cnc(Nc3ccc(N4CCN(C)CC4)cc3)nc2n1-c1cccc(C(C)(C)O)n1 [AZD1775] (first compound max 1 µM, partner max 1 µM) | 0.846 | 0.854 | 0.453 | 0.782 | 0.456 | 0.958 | 0.461 | 1 | 0.992 | 0.953 | 0.826 | 0.38 | 0.411 | 0.592 | 0.717 | 1 | 0.962 | 0.683 | 0.587 | 1
CN(CCO)CC[C@H](CSc1ccccc1)Nc1ccc(S(=O)(=O)NC(=O)c2ccc(N3CCC([C@@H](O)c4ccccc4-c4ccc(Cl)cc4)CC3)cc2)cc1S(=O)(=O)C(F)(F)F [AZD4320] + CCN(CCO)CCCOc1ccc2c(Nc3cc(CC(=O)Nc4cccc(F)c4)[nH]n3)ncnc2c1 [AZD2811] (first compound max 1 µM, 7x7, partner max 1 µM) | 0.258 | 0.829 | 0.245 | 0.566 | 0.494 | 0.966 | 0.213 | 1 | 0.967 | 0.888 | 0.316 | 0.384 | 0.147 | 0.349 | 0.545 | 1 | 0.568 | 0.275 | 0.519 | 1
CN(CCO)CC[C@H](CSc1ccccc1)Nc1ccc(S(=O)(=O)NC(=O)c2ccc(N3CCC([C@@H](O)c4ccccc4-c4ccc(Cl)cc4)CC3)cc2)cc1S(=O)(=O)C(F)(F)F [AZD4320] + CN(C)CCCOc1ccc(-c2ccc3ncc4c(c3c2)n(C2CCOCC2)c(=O)n4C)cn1 [AZD0156] (first compound max 1 µM, 7x7, partner max 1 µM) | 0.148 | 0.744 | 0.124 | 0.323 | 0.372 | 0.279 | 0.104 | 1 | 0.712 | 0.891 | 0.316 | 0.27 | 0.238 | 0.315 | 0.435 | 1 | 0.379 | 0.194 | 0.291 | 1
